Read-outs that look alike come from different tables or passages of the source.
How the values were obtained:
Format in all cases: cell-based
[1] = test system: Ba/F3-FGFR3-transfected cells in the presence of 10 ng/ml murine IL3; experiment: Ba/F3-FGFR3 (plus IL3) cellular proliferation counterscreen, Alamar Blue; settings: for IC50: Mus musculus
Experimental: Ba/F3-FGFR3 (Minus IL3 or Plus IL3) (Cellular Proliferation Assay)
(§1) In a 384 well plate, 100 nl of compound dilution in DMSO was sprayed before adding 50 μl cell culture medium (phenol red free RPMI-1640, 10% FBS, 2 mM L-Glutamine and 50 μg/ml Gentamycin) containing 20000 cells per well of Ba/F3-FGFR3-transfected cells. Cells were put in an incubator at 37° C. and 5% CO2. After 24 hours, 10 μl of Alamar Blue solution (0.5 mM K3Fe(CN)6, 0.5 mM KaFe(CN)6, 0.15 mM Resazurin and 100 mM Phosphate Buffer) was added to the wells, incubated for 4 hours at 37° C. and 5% CO2 before RFU's (Relative Fluorescence Units) (ex. 540 nm., em. 590 nm.) were measured in a flurorescence plate reader.
As a counterscreen the same experiment was performed in the presence of 10 ng/ml murine IL3.
as §1, with “a 96” for “a 384”, “plate, 180” for “plate, 100 nl of compound dilution in DMSO was sprayed before adding 50”, “containing 10000” for “containing 20000”, “Ba/F3-FGFR3-transfected cells were pipette and 20 μl of compound dilution in DMSO was added.” for “Ba/F3-FGFR3-transfected cells.”, “hours, 40” for “hours, 10”

[2] = test system: Ba/F3-Flt3-transfected cells in the presence of 10 ng/ml murine IL3; experiment: Ba/F3-Flt3 (plus IL3) cellular proliferation counterscreen, Alamar Blue; settings: plus 10 ng/ml murine IL3; for IC50: Mus musculus, read-out: BAF3-FLT3 (PLUS IL3) 384 well pIC50 (converted)
[3] = molecular target: Ba/F3-FGFR1-transfected cells (Homo sapiens, UniProt P11362); experiment: Ba/F3-FGFR1 (minus IL3) cellular proliferation assay, Alamar Blue; settings: minus IL3, 384 well
Ba/F3-FGFR1-transfected cells, sequence (P11362 whole entry, change not shown): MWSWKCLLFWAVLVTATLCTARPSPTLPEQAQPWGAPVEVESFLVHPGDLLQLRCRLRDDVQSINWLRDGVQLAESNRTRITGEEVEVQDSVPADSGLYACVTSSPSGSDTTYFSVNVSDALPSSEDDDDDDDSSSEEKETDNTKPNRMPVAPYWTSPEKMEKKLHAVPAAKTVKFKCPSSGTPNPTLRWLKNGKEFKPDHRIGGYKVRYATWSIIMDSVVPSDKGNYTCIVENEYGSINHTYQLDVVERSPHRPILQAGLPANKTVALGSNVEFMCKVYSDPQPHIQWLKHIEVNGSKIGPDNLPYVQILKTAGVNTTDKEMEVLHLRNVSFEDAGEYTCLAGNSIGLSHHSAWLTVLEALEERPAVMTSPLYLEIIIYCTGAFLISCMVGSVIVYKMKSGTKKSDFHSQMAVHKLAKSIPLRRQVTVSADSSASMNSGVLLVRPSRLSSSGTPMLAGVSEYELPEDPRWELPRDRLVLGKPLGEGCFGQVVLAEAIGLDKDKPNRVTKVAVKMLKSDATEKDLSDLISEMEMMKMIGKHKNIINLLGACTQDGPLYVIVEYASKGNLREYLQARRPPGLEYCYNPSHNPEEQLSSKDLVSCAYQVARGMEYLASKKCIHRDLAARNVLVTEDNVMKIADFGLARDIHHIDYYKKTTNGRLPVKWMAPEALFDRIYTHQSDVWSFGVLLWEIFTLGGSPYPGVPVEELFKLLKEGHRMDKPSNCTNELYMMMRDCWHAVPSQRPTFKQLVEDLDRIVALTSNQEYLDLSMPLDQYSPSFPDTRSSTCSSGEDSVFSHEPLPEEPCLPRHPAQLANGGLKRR
Experimental: Ba/F3-FGFR1 (Minus IL3 or Plus IL3) (Cellular Proliferation Assay)
Cells were put in an incubator at 37° C. and 5% CO2. After 24 hours, 10 μl of Alamar Blue solution (0.5 mM K3Fe(CN)6, 0.5 mM KaFe(CN)6, 0.15 mM Resazurin and 100 mM Phosphate Buffer) was added to the wells, incubated for 4 hours at 37° C. and 5% CO2 before RFU's (Relative Fluorescence Units) (ex. 540 nm., em. 590 nm.) were measured in a flurorescence plate reader. […]
as §1, with “a 96” for “a 384”, “plate, 180” for “plate, 100 nl of compound dilution in DMSO was sprayed before adding 50”, “containing 10000” for “containing 20000”, “of Ba/F3-FGFR1-transfected cells were pipette and 20 μl of compound dilution in DMSO was added.” for “of Ba/F3-FGFR3-transfected cells.”, “hours, 40” for “hours, 10”

[4] = test system: Ba/F3-FGFR1-transfected cells in the presence of 10 ng/ml murine IL3; experiment: Ba/F3-FGFR1 (plus IL3) cellular proliferation counterscreen, Alamar Blue; settings: for IC50: Mus musculus
In short: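 Compound dilutions in DMSO are combined with transfected cells in phenol red-free RPMI-1640 containing 10% FBS and L-glutamine. Plates incubate 24 h at 37 °C and 5% CO2. Viability is then scored by 4 h Alamar Blue conversion, read as fluorescence (540 nm excitation, 590 nm emission).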

[5] = plus 10 ng/ml murine IL3, 384 well, read-out: BAF3-FGFR 3 (PLUS IL3) 384 well pIC50 (converted)
[6] = plus IL3, 384 well, read-out: BAF3-FGFR 1 (PLUS IL3) 384 well pIC50 (converted)
[7] = plus IL3, 96 well, read-out: BAF3-FGFR 3 (PLUS IL3) 96 well pIC50 (converted)

Structure (SMILES)	IC50 [1, 5] [µM]	IC50 [2] [µM]	BAF3-FGFR 1 (MIN IL3) 384 well pIC50 [3]	IC50 [4, 6] [µM]	BAF3-FGFR 3 (PLUS IL3) 384 well pIC50 ([1]; plus 10 ng/ml murine IL3, 384 well)	BAF3-FLT3 (PLUS IL3) 384 well pIC50 [2]	BAF3-FGFR 1 (PLUS IL3) 384 well pIC50 ([4]; plus IL3, 384 well)	IC50 [1, 7] [µM]	IC50 ([4]; plus IL3, 96 well, read-out: BAF3-FGFR 1 (PLUS IL3) 96 well pIC50 (converted)) [µM]
COc1cc(OC)cc(N(CCNC(C)C)c2ccc3ncc(C(=O)NCCCN4CCN(C)CC4)nc3c2)c1 [Compound 159]	> 10	> 10	5.74	> 10	–	–	–	–	–
COc1cc(OC)cc(N(CCO)c2ccc3ncc(C(=O)Nc4cnn(C)c4)nc3c2)c1 [Compound 184]	> 10	> 10	5.28	> 10	–	–	–	–	–
COc1cc(OC)cc(N(CCNC(C)C)c2ccc3ncc(-n4cnc(COC(C)=O)c4)nc3c2)c1 [Compound 167]	> 10	> 10	7.13	> 10	–	–	–	–	–
CNc1ccc(-c2cnc3ccc(N(CCCNCC(F)(F)F)c4cc(OC)cc(OC)c4)cc3n2)cn1 [Compound 129]	> 10	> 10	5.62	> 10	–	–	–	–	–
COc1cc(OC)cc(N(CCO)c2ccc3ncc(C4=CCN(C(=O)OC(C)(C)C)CC4)nc3c2)c1 [Compound 178]	> 10	> 10	6.07	> 10	–	–	–	–	–
COc1cc(OC)cc(N(CCO)c2ccc3ncc(C4=CCN(C(=O)OC(C)(C)C)C4)nc3c2)c1 [Compound 173]	> 10	> 10	5.68	> 10	–	–	–	–	–
COc1cc(OC)cc(N(CCCO)c2ccc3ncc(-c4ccnc(F)c4)nc3c2)c1 [Compound 142]	> 10	> 10	5.64	> 10	–	–	–	–	–
COc1cc(OC)cc(N(CCNC(C)C)c2ccc3ncc(-c4ccc(N5CCOCC5)nc4)nc3c2)c1 [Compound 168]	~9.33	~8.32	7.04	7.76	–	–	–	–	–
COc1cc(OC)cc(N(CCCNCC(F)(F)F)c2ccc3ncc(-c4ccnc(C(=O)NCCCCCO)c4)nc3c2)c1 [Compound 150]	> 10	> 10	5.16	> 10	–	–	–	–	–
COc1cc(OC)cc(N(CCN2CCN(C(C)=O)CC2)c2ccc3ncc(-c4ccc(N)nc4)nc3c2)c1 [Compound 68]	> 10	> 10	6.13	> 10	–	–	–	–	–
CO/N=C(\C)c1cnc2ccc(N(CCO)c3cc(OC)cc(OC)c3)cc2n1 [Compound 29]	> 10	> 10	6.41	> 10	–	–	–	–	–
COc1cc(OC)cc(N(CCO)c2ccc3ncc(-c4ccccc4CCO)nc3c2)c1 [Compound 151]	> 10	> 10	5.52	> 10	–	–	–	–	–
COc1cc(OC)cc(N(CCNC(C)C)c2ccc3ncc(C(=O)N4CCCCC4)nc3c2)c1 [Compound 180]	> 10	> 10	5.51	> 10	–	–	–	–	–
COc1cc(OC)cc(N(CCNC(C)C)c2ccc3ncc(-n4cnc(CO)c4)nc3c2)c1 [Compound 77]	> 10	> 10	7.12	> 10	–	–	–	–	–
COc1cc(OC)cc(N(CCO)c2ccc3ncc(/C(C)=N/OC(C)(C)C)nc3c2)c1 [Compound 171]	> 10	> 10	<5	> 10	–	–	–	–	–
COc1cc(OC)cc(N(CCNC(C)C)c2ccc3ncc(NCC4CCNCC4)nc3c2)c1 [Compound 161]	> 10	> 10	5.42	> 10	–	–	–	–	–
COc1cc(OC)cc(N(CCNC(C)C)c2ccc3ncc(N4CCC(CN)CC4)nc3c2)c1 [Compound 67]	> 10	> 10	6.23	8.51	–	–	–	–	–
COc1cc(OC)cc(N(CCCNCC(F)(F)F)c2ccc3ncc(-c4ccnc(Cl)c4)nc3c2)c1 [Compound 145]	> 10	> 10	<5	> 10	–	–	–	–	–
COc1cc(OC)cc(N(CCCNCC(F)(F)F)c2ccc3ncc(-c4cnc(OC)nc4)nc3c2)c1 [Compound 26]	> 10	> 10	5.13	> 10	–	–	–	–	–
COc1cc(OC)cc(N(CCNC(C)C)c2ccc3ncc(-c4ccc(N5CCN(C)CC5)nc4)nc3c2)c1 [Compound 170]	9.77	5.01	6.04	3.55	–	–	–	–	–
COCC(CN(c1cc(OC)cc(OC)c1)c1ccc2ncc(-c3cccnc3)nc2c1)OC(C)=O (single isomer, unassigned) [Compound 76]	–	–	6.3	–	<5	<5	<5	–	–
COc1cc(OC)cc(N(CCN2CCOCC2)c2ccc3ncc(-c4ccc(N)nc4)nc3c2)c1 [Compound 169]	> 10	> 10	6.37	> 10	–	–	–	–	–
COc1cc(OC)cc(N(CCO)c2ccc3ncc(-c4ccnc(C(=O)NCCCCCO)c4)nc3c2)c1 [Compound 139]	> 10	> 10	5.35	> 10	–	–	–	–	–
COC(=O)C1CCCN1c1cnc2ccc(N(CCO)c3cc(OC)cc(OC)c3)cc2n1 (stereo not drawn) [Compound 172]	> 10	> 10	6.6	> 10	–	–	–	–	–
COc1cc(OC)cc(N(CC2CC2)c2ccc3ncc(NC(=O)c4ccc(F)cc4)nc3c2)c1 [Compound 28]	> 10	> 10	<5	> 10	–	–	–	> 10	> 10
COc1cc(OC)cc(N(CC2CC2)c2ccc3ncc(-c4c[nH]cn4)nc3c2)c1 [Compound 39]	> 10	> 10	<5	> 10	–	–	–	> 10	–
COc1cc(OC)cc(N(CCO)c2ccc3ncc(-c4ccc(N5CCN(C)CC5)nc4)nc3c2)c1 [Compound 163]	> 10	> 10	6.15	~10	–	–	–	–	–
COc1cc(OC)cc(N(CCNC(C)C)c2ccc3ncc(C(=O)N4CCOCC4)nc3c2)c1 [Compound 181]	> 10	> 10	5.44	> 10	–	–	–	–	–
COc1cc(OC)cc(N(CCNC(C)C)c2ccc3ncc(C(=O)NCCN4CCOCC4)nc3c2)c1 [Compound 160]	> 10	> 10	5.86	> 10	–	–	–	–	–
COc1cc(OC)cc(N(CCN2CCOCC2)c2ccc3ncc(-c4ccc(NC(=O)N5CCOCC5)nc4)nc3c2)c1 [Compound 35]	> 10	> 10	6.36	> 10	–	–	–	–	–
